Patent US10253060B2, “Terpenoid derivatives” (Daiichi Sankyo Company, Limited, priority 2013, dated 2019)

Key:
Assay type in all cases: cell-based, human
ARPE-19 cells [1] = test: Cytotoxicity, LDH-Cytotoxic Test in ARPE-19 cells; settings: 10 μM, approx. 16 hours, 3 wells
Protocol: ARPE-19 cells (human retinal pigment epithelium cell line, ATCC, catalog No. CRL-2302) were cultured (5% CO2, 37° C.). A DMEM/F12 (Life Technologies Japan Ltd., catalog No. 11330-032) mixed medium containing 10% inactivated FBS was used. The medium contained 100 units/mL (final concentration) penicillin and 100 μg/[…] (final concentration) streptomycin.
The ARPE-19 cells were seeded at 5000 cells/well in a 96-well plate. The amount of the medium was 50 μL. Approximately 3 hours later, 50 μL of a medium containing CDDO-Me or each of terpenoid derivatives A to H was added thereto, followed by culture for approximately 16 hours. Then, cytotoxicity was evaluated using LDH-Cytotoxic Test (Wako Pure Chemical Industries, Ltd., catalog No. 299-50601). The evaluation method followed the attached document. Each group consisted of 3 wells and was indicated as cytotoxicity at the concentration of 10 μM. The means thereof were 43% for CDDO-Me, 2% for terpenoid derivative A, 2% for terpenoid derivative B, 2% for terpenoid derivative C, 1% for terpenoid derivative D, 2% for terpenoid derivative E, 3% for terpenoid derivative F, 3% for terpenoid derivative G, and 1% for terpenoid derivative H. Terpenoid derivatives A to H were low in cytotoxicity as compared with CDDO-Me.

ARPE-19 cells [2] = test: Cytoprotective action: suppression of t-BHP-induced decrease in number of live ARPE-19 cells; settings: 300 μM t-BHP; for Number of live cells (percentage): no t-BHP/no compound = 100%, mean ± SD, 3 wells
Protocol: The peroxide tert-butyl hydroperoxide (t-BHP) is known to cause oxidative stress-dependent cell injury (Chem Biol Interact 2009; 181: 366- and Food Chem Toxicol 2011; 49: 2081-).
The test compound was terpenoid derivative B of the present invention obtained in Example 1 and CDDO-Me as Comparative Example.
ARPE-19 cells were cultured (5% CO2, 37° C.) using a DMEM/F12 (Life Technologies Japan Ltd., catalog No. 11330-032) mixed medium containing 10% inactivated FBS. The medium contained 100 units/mL (final concentration) penicillin and 100 μg/mL (final concentration) streptomycin.
The ARPE-19 cells were seeded at 10000 cells/well in a 96-well plate. The amount of the medium was 100 μL. Approximately 6 hours later, the medium was replaced with a medium containing terpenoid derivative B of the present invention obtained in Example 1 or CDDO-Me. After culture for approximately 16 hours, the number of live ARPE-19 cells was measured (Cell Counting Kit-8 (catalog No. CK01) manufactured by Dojindo Laboratories was used). Then, the medium was replaced with medium containing 300 μM t-BHP (manufactured by Sigma-Aldrich Corp., catalog No. 46665) and further containing terpenoid derivative B of the present invention obtained in Example 1 or CDDO-Me. Approximately 6 hours after the addition of t-BHP, the number of live ARPE-19 cells was measured.
The number of live cells in medium containing neither t-BHP nor the test compound was defined as 100%. The number of live cells in medium containing 300 μM t-BHP and each concentration of the test compound was indicated by percentage. Each group consisted of 3 wells and was indicated as a mean and standard deviation.

Hmox1 gene = test: Effect of inducing Nrf2 target gene (in vitro): Hmox1 gene expression in ARPE-19 cells, real-time quantitative PCR; settings: for Hmox1 gene expression level (relative value): approx. 6 hours, 0 nM defined as 1.0, mean ± SD, 3 wells; for concentration at which the expression level of the Hmox1 gene was increased 2-fold / concentration at which the expression level of the Hmox1 gene was increased 5-fold: analysed with Prism
Protocol: The Hmox1 gene was used as the Nrf2 target gene.
The expression level of the Hmox1 gene induced by the addition of a test compound to ARPE-19 cells (human retinal pigment epithelium cell line, ATCC, catalog No. CRL-2302) was measured to examine the effect of inducing the Hmox1 gene by the test compound. The test compound was terpenoid derivative B of the present invention obtained in Example 1 and CDDO-Me as Comparative Example.
The ARPE-19 cells were cultured (5% CO2, 37° C.) using a DMEM/F12 (Life Technologies Japan Ltd., catalog No. 11330-032) mixed medium containing 10% inactivated FBS. The medium contained 100 units/mL (final concentration) penicillin and 100 μg/mL (final concentration) streptomycin.
The ARPE-19 cells were seeded at 60000 cells/well in a 24-well plate. The amount of the medium was 500 μL. Approximately 24 hours later, the medium was replaced with a medium containing terpenoid derivative B of the present invention obtained in Example 1 or CDDO-Me, and the culture was continued. Approximately 6 hours later, mRNA was collected from the ARPE-19 cells using an extraction kit (manufactured by Qiagen N.V., RNeasy Mini Kit, catalog No. 74106). From the obtained mRNA, cDNA was prepared using a cDNA synthesis kit (manufactured by GE Healthcare Life Sciences, First-Strand cDNA Synthesis Kit). The obtained cDNA was amplified using a reagent (manufactured by Applied Biosystems, Inc., TaqMan(R) Gene Expression Master Mix (catalog No. 4369016)) and a probe, and subjected to real-time quantitative PCR (Real-time PCR HT7900 manufactured by Applied Biosystems, Inc. was used).
When the concentration of the test compound was 0 nM, the expression level of the Hmox1 gene was defined as 1.0±0.0. The expression level of the Hmox1 gene at each concentration of the test compound was indicated as a relative value. Each group consisted of 3 wells and was indicated by a mean and standard deviation.
The activity ratios of terpenoid derivative B of the present invention to CDDO-Me were 2747 times and 92 times.

COC(=O)[C@]12CCC(C)(C)C[C@H]1[C@H]1C(=O)C=C3[C@@]4(C)C=C(C#N)C(=O)C(C)(C)[C@@H]4CC[C@@]3(C)[C@]1(C)CC2 [CDDO-Me, methyl 2-cyano-3,12-dioxooleana-1,9-dien-28-oate, reference compound]
cytotoxicity (LDH-Cytotoxic Test), mean (ARPE-19 cells [1]): 43% | suppression of the decrease in the number of live cells caused by t-BHP (in words) (ARPE-19 cells [2]): did not completely suppress the decrease in the number of live cells | Number of live cells (percentage) (ARPE-19 cells [2]; 0.03 nM test compound): 61.8 ± 2.0% | Number of live cells (percentage) (ARPE-19 cells [2]; 0.3 nM test compound): 56.7 ± 1.2% | Number of live cells (percentage) (ARPE-19 cells [2]; 3 nM test compound): 74.3 ± 1.4% | Number of live cells (percentage) (ARPE-19 cells [2]; 30 nM test compound): 84.7 ± 4.8% | Number of live cells (percentage) (ARPE-19 cells [2]; 300 nM test compound): 76.1 ± 2.8% | Hmox1 gene expression level (relative value) (Hmox1 gene; 0.00001 nM test compound): 1.1 ± 0.0 | Hmox1 gene expression level (relative value) (Hmox1 gene; 0.001 nM test compound): 1.0 ± 0.1 | Hmox1 gene expression level (relative value) (Hmox1 gene; 0.03 nM test compound): 1.4 ± 0.0 | Hmox1 gene expression level (relative value) (Hmox1 gene; 0.3 nM test compound): 1.4 ± 0.1 | Hmox1 gene expression level (relative value) (Hmox1 gene; 3 nM test compound): 2.1 ± 0.3 | Hmox1 gene expression level (relative value) (Hmox1 gene; 30 nM test compound): 12.2 ± 2.6 | concentration at which the expression level of the Hmox1 gene was increased 2-fold (Hmox1 gene): 2.5 nM | concentration at which the expression level of the Hmox1 gene was increased 5-fold (Hmox1 gene): 11 nM

COC(=O)[C@@]12CC[C@]3(C)[C@H](C(=O)C=C4[C@@]5(C)[C@H]6O[C@@]6(C#N)C(=O)C(C)(C)[C@@H]5CC[C@]43C)[C@@H]1CC(C)(C)[C@@H](O)C2 [terpenoid derivative B]
cytotoxicity (LDH-Cytotoxic Test), mean (ARPE-19 cells [1]): 2% | Number of live cells (percentage) (ARPE-19 cells [2]; 0.03 nM test compound): 90.3 ± 3.9% | Number of live cells (percentage) (ARPE-19 cells [2]; 0.3 nM test compound): 99.0 ± 10.0% | Number of live cells (percentage) (ARPE-19 cells [2]; 3 nM test compound): 119.7 ± 5.7% | Number of live cells (percentage) (ARPE-19 cells [2]; 30 nM test compound): 114.3 ± 9.5% | Number of live cells (percentage) (ARPE-19 cells [2]; 300 nM test compound): 111.2 ± 3.8% | activity ratio to CDDO-Me (2-fold Hmox1 increase concentration) (Hmox1 gene): 2747 times | activity ratio to CDDO-Me (5-fold Hmox1 increase concentration) (Hmox1 gene): 92 times | Hmox1 gene expression level (relative value) (Hmox1 gene; 0.00001 nM test compound): 1.3 ± 0.0 | Hmox1 gene expression level (relative value) (Hmox1 gene; 0.001 nM test compound): 0.9 ± 0.1 | Hmox1 gene expression level (relative value) (Hmox1 gene; 0.03 nM test compound): 5.4 ± 0.1 | Hmox1 gene expression level (relative value) (Hmox1 gene; 0.3 nM test compound): 6.1 ± 0.5 | Hmox1 gene expression level (relative value) (Hmox1 gene; 3 nM test compound): 10.4 ± 1.5 | Hmox1 gene expression level (relative value) (Hmox1 gene; 30 nM test compound): 20.8 ± 1.9 | concentration at which the expression level of the Hmox1 gene was increased 2-fold (Hmox1 gene): 0.00091 nM | concentration at which the expression level of the Hmox1 gene was increased 5-fold (Hmox1 gene): 0.12 nM
